Test results from patent publication US9393236B2, “Use of 4-cyclopropylmethoxy-N-(3,5-dichloro-1-oxido-4-pyridin-4-yl)-5-(methoxy)pyridine-2-carboxamide in the treatment of cranial traumas” (SANOFI, priority 2007, dated 2016).

Columns and labels:
[1] = tested on: ferret; assay: Evaluation of the emetic effects in the ferret; format: in vivo
Protocol: The emetic capacity of 4-cyclopropylmethoxy-N-(3,5-dichloro-1-oxidopyridin-4-yl)-5-(methoxy)pyridine-2-carboxamide was evaluated in the ferret. Two groups of ferrets were used, the first receiving the carrier (PEG200) and the second receiving 4-cyclopropyl methoxy-N-(3,5-dichloro-1-oxidopyridin-4-yl)-5-(methoxy)pyridine-2-carboxamide in solution in the carrier (PEG 200), by oral gavage. The animals were observed continually for the 2 hours following the administration, and then every hour up to 6 hours after the administration. The clinical signs (in particular retching and vomiting) were noted.
The emetic capacity of (R)-(−)-rolipram was evaluated in the ferrets. Two groups of ferrets were used, the first being given the carrier (PEG200) and the second being given the (((4R)-4-[3-(cyclopentyloxy)-4-methoxyphenyl]pyrrolidine-2-one)) in solution in the carrier (PEG 200), by oral gavage, at doses of 0.05 mg/kg and of 0.1 mg/kg. The animals were observed continually for the 2 hours following administration, and then once an hour up to 6 hours after the administration. The clinical signs were noted.

[2] = tested on: rats with parietal cranial trauma; assay: CFR (Conditioned Freezing Response) test after a parietal cranial trauma; format: in vivo, rat (Sprague-Dawley); settings: rat; 0.05 mg/kg i.v. 4 h after surgery (D0), then 0.1 mg/kg/day per os twice a day D1-D21; CFR measured D23/D24; p<0.001 vs traumatized animal given the carrier
Protocol: After general anaesthesia, rats (Sprague-Dawley, male, 150-200 g, Charles River) are placed in a stereotaxis frame. A craniotomy is performed at the level of the parietal cortex (AP: 3.5 mm; LAT: 7 mm and 3.5 mm below the cranial roof). A catheter connected to an HPLC pump is placed in contact with the dura mater and a pressure of 0.073 Kpsi is exerted.
The animals are treated intravenously 4 h after the surgery (D0) by administering a solution of 4-cyclopropylmethoxy-N-(3,5-dichloro-1-oxidopyridin-4-yl)-5-(methoxy)pyridine-2-carboxamide in the carrier (PEG200/physiological saline (NaCl 0.9%)), at the dose of 0.05 mg/kg.
Starting from D1 and up to D21 post-surgery, the animals are treated with a solution containing 4-cyclopropylmethoxy-N-(3,5-dichloro-1-oxidopyridin-4-yl)-5-(methoxy)pyridine-2-carboxamide in the carrier (methylcellulose (MC) (0.6%)+tween-80 (0.5%) in water) per os, twice a day, at the total daily dose of 0.1 mg/kg.
The deficiency in the CFR was measured at days D23 and D24 post-surgery.
At D23, the animal is placed in a box, where it receives an electric shock of 0.6 mA for 1.5 s.
At D24, the animal is again placed in the same box and the duration of immobility is measured for 3 minutes.

[3] = 0.1 mg/kg by oral gavage in PEG200, observed up to 6 hours

SMILES: COc1cnc(C(=O)Nc2c(Cl)c[n+]([O-])cc2Cl)cc1OCC1CC1 [4-Cyclopropylmethoxy-N-(3,5-dichloro-1-oxidopyridin-4-yl)-5-(methoxy)pyridine-2-carboxamide]
- emetic effects (retching and vomiting) [1, 3]: induces no retching or vomiting
- inhibition of the deficiency (immobility time in CFR) induced by a cranial trauma [2]: 100%

SMILES: COc1ccc([C@@H]2CNC(=O)C2)cc1OC1CCCC1 [(R)-(−)-rolipram, (4R)-4-[3-(cyclopentyloxy)-4-methoxyphenyl]pyrrolidine-2-one]
- emetic effects (retching and vomiting) ([1]; 0.05 mg/kg by oral gavage in PEG200, observed up to 6 hours): induces vomiting
- emetic effects (retching and vomiting) [1, 3]: induces vomiting
